The subject of one assay is NSCLC cell lines. In words: Genome-wide expression (Agilent arrays, GSEA) and DNA methylation of cell lines treated with AZA. Type of assay: cell-based, human. From the text:
For in vitro DNA methylation values, DNA was extracted from cell lines that were either untreated or treated with AZA at day 3, at the end of treatment, and day 10 (7 days post end of treatment) and analyzed by the Illumina Infinium HumanMethylation450 BeadChips (Illumina, Inc., San Diego, Calif., USA). Raw data were imported into R using the “methylumi” package from Bioconductor (22). Data points for probes with detection p-value >0.05 were masked as NA. Δ beta values (Δ beta value=beta value AZA−beta value Mock) were calculated and used to make boxplots. Heat maps were made similarly like those for the TCGA data using informative probes defined by the TCGA data.
For in vitro RNA extracted from cell lines treated with AZA, analyses were done at exactly the same time points as for DNA methylation above. Analyses from wild type colon cancer, HCT116 cells, and genetic knockout counterparts for DNA methyltransferases (DKO cells) were also performed. Expression microarrays were carried out using Agilent Human 4×44K expression arrays (Agilent Technologies, Santa Clara, Calif., USA, Cat#: G4112F). Within-array and between-array normalization was performed using Loess and Aquantile normalization, respectively (23). Median of the M values (M value Expression=log 2 [AZA/Mock] OR log 2 [DKO/HCT116]) was determined for multiple probes associated with the same gene.
For each of the eight lung cancer cell lines (H838, H1299, H358, H1270, A549, H460, HCC4006, HCC827) a ranked gene list was created (genes were sorted by decreasing M value). These eight ranked gene lists were entered in the GSEA tool (51-52) and the enrichment of both Kegg (53) and Reactome (54) pathways in these lists was calculated (default parameters). A gene set was selected when it was enriched in any of the eight cell lines (p value <0.05 and false discovery rate <0.25). The normalized enrichment scores (NES) for the gene sets in each cell line were used to create the heat maps. When a certain gene set was not significant in a cell line, it was assigned a NES of 0.
Expression and methylation data were analyzed to find genes whose re-expression was linked to demethylation after AZA treatment. Genes were selected based on a set of cut-offs, both for the methylation and expression values: A gene was considered to be re-expressed when at day 3 or day 10 the median M value of all the probes linked to that gene was higher than 0.5. Infinium probes were analyzed separately at their distances from the transcription start site for each gene examined. […] Only probes that were associated with a CpG island and that were located within 1000 bp upstream and 1000 bp downstream of the transcription start site were used in the analyses. The probes that passed these filters were validated using the TCGA methylation and expression data (see the definition of informative probes in the “Infinium DNA Methylation Data” section of Methods). […] To better understand the biological implications of the re-expressed genes, the gene lists were searched for transcription factors. Two human transcription factor lists obtained from Ravasi et al. (25) and Vaquerizas et al. (26, 27) were combined and the resulting list was matched to the lists of demethylated and re-expressed genes.
(§1) A previously validated pre-clinical model was employed to examine how AZA alters expression of key pathways in NSCLC cell lines.(29) Cells were treated in vitro with 500 nM AZA for 72 hours then harvested immediately after withdrawal of drug and again one week later for genome wide methylation and expression studies.

Assay [1] relates to epithelial cell lines and AML cell lines. In words: Gene expression in tumor-derived cell lines with AZA treatment (FIG. 2). Type of assay: cell-based.
Assay [2] relates to cell surface PD-L1 in NSCLC lines H838 and H1299. In words: Flow cytometry (FACS) of cell surface proteins after AZA treatment. Type of assay: cell-based, human. Conditions: day 10. The method, then: Frozen cells were thawed in 37 degrees Celsius and washed once with flow-washing buffer. Aliquots of single-cell suspension were then stained with fluorescent-labeled antibodies for 15 mins at room temperature. Each sample was washed twice and re-suspended in flow-washing buffer and analyzed by FACSCalibur. The following antibodies were used: CD274 (12-5983-42 Ebiosciences), HLA abc(12-9983-42 Ebiosciences), CD276(331606 Biolegend), CD119(558934 BD), B2 microblogumin(551337BD), CD58(555921BD). Changes between AZA treated and mock cells were calculated using mean fluorescence intensities (MFI) and the formula log 2([(MFIantibody, treated)−(MFIisotype, treated)]/[(MFIantibody, mock)−(MFIisotype, mock)]).
as §1
On the technique in general: A flow cytometer gives signals particle by particle.

SMILES strings stand for the structures. Entries after “also recorded” stand apart in the source; their conditions may differ.

From patent publication US10966998B2, “Cancer therapy via a combination of epigenetic modulation and immune modulation” (The Johns Hopkins University, priority 2013, dated 2021) come the findings set out here.

For `Nc1ncn([C@@H]2O[C@H](CO)[C@@H](O)[C@H]2O)c(=O)n1` [AZA, 5-azacytidine], the “immune-related pathways by Gene Set Enrichment Analysis” value in the assay with NSCLC cell lines (500 nM AZA for 72 hours, NSCLC cell lines) is given as “up-regulation of multiple immune-related pathways”. Further, the IRAK3 expression entry with NSCLC cell lines (H838 cells) is given as “up-regulated”. Moreover, the “number of genes 4-fold or more up-regulated” value in the assay with NSCLC cell lines (H2170 cells, day 10) is given as 114 genes. This compound also came in with an IRF7 expression increase with NSCLC cell lines (LUSC cell line H2170) of 9 fold. Also, in the assay with NSCLC cell lines (NSCLC cell lines), the “CD80 and CD86 expression” value is recorded as “not altered”; the “number of genes with high baseline promoter CpG island methylation, demethylation of 25% or more and expression increased 1.4-fold or greater” value is on record as “Approximately 300 genes”. Besides, in the assay on NSCLC cell lines (NSCLC lines), the IFI27 expression result was “up-regulated”; the “MAVS (antiapoptotic gene) expression” value is on record as “down-regulation”; the “interferon-γ receptor (IFNGR1) and STAT gene (incl. STAT1) expression” value is reported as “up-regulation”; the “transcripts of HLA Class I antigens, B2M, CD58, TAP1, PMSB9 and PSMB8” value was “upregulates”. The γ-interferon expression entry in the assay with NSCLC cell lines (NSCLC lines) was “not induced”. Further, in the assay on NSCLC cell lines (especially cell line H838), the “antiapoptotic genes BCL2 and BIRC5 (SURVIVIN) expression” value is listed as “decreases”; the autophagy gene expression result is reported as “increases”. Besides, in the assay with NSCLC cell lines (several NSCLC cell lines), the PD-L1 transcript level result is on record as “up-regulated”. In addition, in assay [1], the “gene expression changes with AZA treatment” value is “pro-inflammatory changes”. The “cell surface PD-L1 protein level” value in assay [2] is listed as “up-regulated; also recorded: increased”.
